Reference: the NIST ThermoML archive (doi:10.1021/je050389b)

Experiment: xn = mol fraction of the nth substance listed
Conditions: Liquid; for viscosity: 100.5 kPa; for mass density: 101 kPa

CCCCCCCC(=O)OCC [ethyl octanoate] + CCO
Conditions | mass density, 288.15 K [kg/m3] | mass density, 298.15 K [kg/m3] | mass density, 308.15 K [kg/m3] | mass density, 318.15 K [kg/m3] | viscosity, 288.15 K [mPa·s] | viscosity, 298.15 K [mPa·s] | viscosity, 308.15 K [mPa·s] | viscosity, 318.15 K [mPa·s]
x1 = 0.05 | 805.14 | 796.5 | 787.73 | 778.81 | 1.322 | 1.094 | 0.915 | 0.772
x1 = 0.1 | 814.37 | 805.66 | 796.82 | 787.83 | 1.299 | 1.081 | 0.907 | 0.773
x1 = 0.15 | 822.04 | 813.27 | 804.39 | 795.36 | 1.306 | 1.087 | 0.915 | 0.78
x1 = 0.2 | 828.52 | 819.74 | 810.84 | 801.79 | 1.32 | 1.098 | 0.926 | 0.791
x1 = 0.25 | 833.98 | 825.17 | 816.25 | 807.19 | 1.337 | 1.112 | 0.94 | 0.804
x1 = 0.3 | 838.69 | 829.87 | 820.94 | 811.88 | 1.356 | 1.129 | 0.953 | 0.817
x1 = 0.35 | 842.77 | 833.94 | 825.02 | 815.96 | 1.375 | 1.145 | 0.969 | 0.831
x1 = 0.4 | 846.39 | 837.55 | 828.63 | 819.58 | 1.398 | 1.164 | 0.984 | 0.844
x1 = 0.45 | 849.59 | 840.77 | 831.86 | 822.83 | 1.42 | 1.183 | 1 | 0.859
x1 = 0.5 | 852.45 | 843.63 | 834.72 | 825.71 | 1.443 | 1.202 | 1.016 | 0.873
x1 = 0.55 | 855.04 | 846.23 | 837.34 | 828.36 | 1.468 | 1.222 | 1.033 | 0.888
x1 = 0.6 | 857.4 | 848.6 | 839.72 | 830.77 | 1.492 | 1.242 | 1.05 | 0.903
x1 = 0.65 | 859.54 | 850.77 | 841.92 | 832.99 | 1.517 | 1.262 | 1.068 | 0.917
x1 = 0.7 | 861.52 | 852.76 | 843.94 | 835.05 | 1.542 | 1.284 | 1.085 | 0.933
x1 = 0.75 | 863.4 | 854.68 | 845.88 | 837.01 | 1.568 | 1.306 | 1.103 | 0.948
x1 = 0.8 | 865.13 | 856.41 | 847.64 | 838.81 | 1.595 | 1.327 | 1.121 | 0.964
x1 = 0.85 | 866.72 | 858 | 849.25 | 840.47 | 1.623 | 1.35 | 1.14 | 0.979
x1 = 0.9 | 868.19 | 859.5 | 850.78 | 842.05 | 1.649 | 1.371 | 1.159 | 0.996
x1 = 0.95 | 869.6 | 860.93 | 852.26 | 843.57 | 1.673 | 1.391 | 1.177 | 1.013
x1 = 1 | 870.79 | 862.15 | 853.52 | 844.87 | 1.697 | 1.411 | 1.193 | 1.027

CCCC(=O)OCCC(C)C [3-methylbutyl butanoate] + CCO
Conditions | mass density, 288.15 K [kg/m3] | mass density, 298.15 K [kg/m3] | mass density, 308.15 K [kg/m3] | mass density, 318.15 K [kg/m3] | viscosity, 288.15 K [mPa·s] | viscosity, 298.15 K [mPa·s] | viscosity, 308.15 K [mPa·s] | viscosity, 318.15 K [mPa·s]
x1 = 0.05 | 804.06 | 795.35 | 786.52 | 777.54 | 1.27 | 1.057 | 0.887 | 0.744
x1 = 0.1 | 812.38 | 803.57 | 794.63 | 785.54 | 1.231 | 1.025 | 0.858 | 0.723
x1 = 0.15 | 819.51 | 810.61 | 801.58 | 792.4 | 1.201 | 1.004 | 0.844 | 0.715
x1 = 0.2 | 825.58 | 816.61 | 807.52 | 798.28 | 1.181 | 0.993 | 0.838 | 0.711
x1 = 0.25 | 830.83 | 821.8 | 812.66 | 803.38 | 1.171 | 0.985 | 0.834 | 0.71
x1 = 0.3 | 835.41 | 826.34 | 817.17 | 807.86 | 1.167 | 0.98 | 0.832 | 0.71
x1 = 0.35 | 839.37 | 830.31 | 821.11 | 811.78 | 1.168 | 0.98 | 0.833 | 0.714
x1 = 0.4 | 842.96 | 833.85 | 824.64 | 815.3 | 1.17 | 0.984 | 0.835 | 0.717
x1 = 0.45 | 846.14 | 837.02 | 827.79 | 818.44 | 1.176 | 0.989 | 0.84 | 0.723
x1 = 0.5 | 849.03 | 839.9 | 830.66 | 821.32 | 1.183 | 0.994 | 0.846 | 0.729
x1 = 0.55 | 851.61 | 842.46 | 833.24 | 823.9 | 1.191 | 1.001 | 0.853 | 0.735
x1 = 0.6 | 854.01 | 844.86 | 835.64 | 826.33 | 1.202 | 1.01 | 0.862 | 0.743
x1 = 0.65 | 856.19 | 847.05 | 837.84 | 828.54 | 1.213 | 1.021 | 0.872 | 0.751
x1 = 0.7 | 858.18 | 849.04 | 839.85 | 830.57 | 1.224 | 1.031 | 0.882 | 0.76
x1 = 0.75 | 860.04 | 850.92 | 841.74 | 832.49 | 1.237 | 1.043 | 0.891 | 0.77
x1 = 0.8 | 861.76 | 852.65 | 843.5 | 834.28 | 1.253 | 1.056 | 0.903 | 0.781
x1 = 0.85 | 863.35 | 854.28 | 845.15 | 835.96 | 1.268 | 1.071 | 0.915 | 0.792
x1 = 0.9 | 864.86 | 855.81 | 846.71 | 837.56 | 1.284 | 1.086 | 0.929 | 0.806
x1 = 0.95 | 866.3 | 857.28 | 848.22 | 839.12 | 1.302 | 1.099 | 0.941 | 0.817
x1 = 1 | 867.72 | 858.69 | 849.62 | 840.55 | 1.317 | 1.111 | 0.952 | 0.827
